Measurements from patent US10202343B2, “MIF modulators” (YALE UNIVERSITY, priority 2008, dated 2019).
pIC50: −log10 of the molar value. Where two headings read alike, the source gives them in different places. Values belong to the molecule of their own block, whether it stands above or below them.

Assays:
[1] = biological target: T1, Human MIF (MIF tautomerase activity) (Homo sapiens, UniProt P14174); test: HPP tautomerase assay; assay type: biochemical; settings: for pIC50: read-out: HPP IC50
T1 construct: made in house
T1 sequence (P14174 2-115 limits assumed): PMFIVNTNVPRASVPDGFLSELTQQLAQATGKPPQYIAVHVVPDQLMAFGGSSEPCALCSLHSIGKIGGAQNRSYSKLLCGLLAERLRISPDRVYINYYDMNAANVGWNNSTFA

[2] = biological target: T2, MIF-CD74 Binding (biotin-labeled recombinant human MIF, recombinant human MIF receptor CD74 ectodomain) (Homo sapiens, UniProt P14174); test: MIF-CD74 binding (capture) assay; set-up: concentration of C74 % MaxInhib (number after @): unit not given here; settings: for % Bound: Table 19; for pIC50: read-out: CD74 IC50; for CD74 % MaxInhib / C74 % MaxInhib: number before @
T2 sequence (P14174 2-115 limits assumed): T1 sequence (P14174 2-115 limits assumed)

[3] = Table 13, data cell c5, number before @

SMILES: COC(=O)CC1CC(c2ccc(O)cc2)=NO1 (stereo not drawn) [ISO-1, reference compound]
activity in the HPP tautomerase assay [1]: inactive
activity in the capture assay [2]: inactive

SMILES: Oc1ccc(-c2cn(Cc3ccccc3)nn2)cc1 [MIF-002]
% Bound [2]: 96%
pIC50 ([2]; Table 19, data cell c5): 2.22

SMILES: Oc1ccc(-n2cc(Cc3ccccc3)nn2)cc1 [MIF-003]
pIC50 ([2]; Table 18): 5.46

SMILES: COc1ccc(Cn2cc(-c3ccc(O)cc3)nn2)cc1 [MIF-004]
% Bound [2]: 94%

SMILES: COc1cccc(Cn2cc(-c3ccc(O)cc3)nn2)c1 [MIF-005]
% Bound [2]: 67%
pIC50 ([2]; Table 19, data cell c5): 4.00

SMILES: Oc1ccc(-c2cn(-c3cccnc3)nn2)cc1 [MIF-007]
pIC50 ([1]; Table 20): 3.01

SMILES: Oc1ccc(-c2cn(-c3cncc4ccccc34)nn2)cc1 [MIF-008]
pIC50 ([1]; Table 20): 4.49

SMILES: Oc1ccc(-n2cc(-c3cncc4ccccc34)nn2)cc1 [MIF-021]
HPP IC50 ([1]; Table 21): agonist
IC50 ([2]; Table 21, column beside HPP IC50): Agonist

SMILES: NC(=O)c1nc2ccccc2n1Cc1ccccc1 [MIF-062]
HPP Max Inhib ([1]; Table 5): 16%
concentration of CD74 % MaxInhib (number after @) ([2]; Table 5): 1.87 µM
CD74 % MaxInhib ([2]; Table 5): 25%

SMILES: CN(C)C(=O)c1nc2ccccc2n1Cc1ccccc1 [MIF-063]
HPP Max Inhib ([1]; Table 5): 0%
concentration of CD74 % MaxInhib (number after @) ([2]; Table 5): 1.87 µM
CD74 % MaxInhib ([2]; Table 5): 27%

SMILES: CNC(=O)c1nc2ccccc2n1Cc1ccccc1 [MIF-065]
HPP Max Inhib ([1]; Table 5): 13%
concentration of CD74 % MaxInhib (number after @) ([2]; Table 5): 1.87 µM
CD74 % MaxInhib ([2]; Table 5): 16%

SMILES: O=Cc1cccc(-n2sc3cc(F)ccc3c2=O)c1 [MIF-135]
pIC50 ([1]; Table 6, data cell c7): 5.22

SMILES: COCc1cccc(-n2sc3cc(F)ccc3c2=O)c1 [MIF-136]
pIC50 ([1]; Table 6, data cell c7): 5.62

SMILES: COc1cccc(-n2sc3ccc(F)cc3c2=O)c1 [MIF-144]
pIC50 ([1]; Table 6, data cell c7): 5.56

The remaining lines, values ahead:

% Bound [2]: 100%
SMILES: Cc1cccc(Cn2cc(-c3ccc(O)cc3)nn2)c1 [MIF-031]

% Bound [2]: 100%
SMILES: Cc1ccccc1Cn1cc(-c2ccc(O)cc2)nn1 [MIF-032]

HPP IC50 ([1]; Table 19, data cell c6): agonist
CD74 IC50 ([2]; Table 19, data cell c5): agonist
SMILES: COc1ccccc1Cn1cc(-c2ccc(O)cc2)nn1 [MIF-033]

pIC50 ([1]; Table 19, data cell c6): 6.00 to 6.30
pIC50 ([2]; Table 19, data cell c5): 5.92
SMILES: COc1cccc(Cn2cc(-c3ccc(O)cc3)nn2)c1OC [MIF-034]

pIC50 ([2]; Table 20): 3.52
SMILES: Oc1ccc(-c2cn(Cc3ccccn3)nn2)cc1 [MIF-035]

pIC50 ([1]; Table 19, data cell c6): 5.60
pIC50 ([2]; Table 19, data cell c5): 5.92
SMILES: COC(=O)c1cccc(Cn2cc(-c3ccc(O)cc3)nn2)c1 [MIF-036]

% Bound [2]: 70-90%
SMILES: O=C(O)c1cccc(Cn2cc(-c3ccc(O)cc3)nn2)c1 [MIF-037]

pIC50 ([2]; Table 17): 3.05
SMILES: Oc1ccc2c(c1)oc1ccccc12 [MIF-039]

HPP Max Inhib ([1]; Table 5): 18%
concentration of CD74 % MaxInhib (number after @) ([2]; Table 5): 1.87 µM
CD74 % MaxInhib ([2]; Table 5): 25%
SMILES: COCCc1nc2ccccc2n1Cc1ccccc1 [MIF-066]

pIC50 ([1]; Table 18): 3.12
concentration of C74 % MaxInhib (number after @) ([2]; Table 18): 0.0078
C74 % MaxInhib ([2]; Table 18): 14%
SMILES: Oc1ccc(-n2cc(Cc3ccccc3)nn2)cc1F [MIF-069]

concentration of HPP Max Inhib (number after @) ([1]; Table 18): 1000
HPP Max Inhib ([1]; Table 18, number before @): 35%
concentration of C74 % MaxInhib (number after @) ([2]; Table 18): 0.0078
C74 % MaxInhib ([2]; Table 18): 14%
SMILES: COc1ccccc1Cc1cn(-c2ccc(O)cc2)nn1 [MIF-070]

pIC50 ([1]; Table 18): 3.00
concentration of C74 % MaxInhib (number after @) ([2]; Table 18): 0.24
C74 % MaxInhib ([2]; Table 18): 9%
SMILES: Oc1ccc(-n2cc(Cc3ccccc3O)nn2)cc1 [MIF-071]

concentration of HPP Max Inhib (number after @) ([1]; Table 13): 1000 µM
HPP Max Inhib [1, 3]: 30%
concentration of CD74 % MaxInhib (number after @) ([2]; Table 13): 0.24 µM
CD74 % MaxInhib ([2]; Table 13): 9%
SMILES: O=C(c1cc2ccccc2o1)c1cc2cc(O)ccc2o1 [MIF-072]

concentration of HPP Max Inhib (number after @) ([1]; Table 13): 700 µM
HPP Max Inhib [1, 3]: 47%
SMILES: Cc1ccc2oc(C(=O)c3cc4ccccc4o3)cc2c1 [MIF-078]

concentration of CD74 % MaxInhib (number after @) ([2]; Table 14): 0.24 µM
CD74 % MaxInhib ([2]; Table 14): 19%
SMILES: Cc1ccc2cc(C(=O)N3CCc4ccccc43)oc2c1 [MIF-082]

pIC50 ([1]; Table 18): 3.28
SMILES: COc1cccc(Cc2cn(-c3ccc(O)cc3)nn2)c1OC [MIF-084]
